Series [1] relates to urease from Arthrobacter parafineus ATCC 15591. Put plainly: Km determination, crude enzymatic solution (Example 2). Format: biochemical.
Substrate in series [2]: NC(N)=O
The series is described as follows: purified protein, by the assay type. The note with it: other: phosphate buffer (pH 7.5), purified enzyme preparate of Example 1.

On to `NC(N)=O` [urea], for which the Km in series [1] was determined as 20 mM.

B1: urease from Corynebacterium lilium ATCC 21644 (Corynebacterium glutamicum ATCC 13032) (protein)
chain: MSFEISRKQYTDLYGPTVGDSVRLADTELFLCVEKDYAAIGEEVAFGGGKVIRDGMGQNGTLVRDVDIPDTVITNVIVLDYTGVYKADVALRDGKIFRIGKAGNPNVMENVDIVIGVATDIIAGEGKILTAGGIDTHVHFLGTDQVNTALASGITTMIGGGTGPSQASMATTVTPGQWNTYNMLSAFEGMPMNFGILGKGHGSSKSPLAEQVRAGAIGLKIHEDWGATPSSINTALEVADDMDIQVALHSDTLNEAGFVEDTIEAIAGRVIHTFHTEGAGGGHAPDLIRVAALPNVLPASTNPTLPYTRNTVEEHLDMVMVAHHLNPDIPEDVAFADSRIRAETIAAEDVLHDMGIFSITSSDSQAMGRVGETITRTWQVADHMKRTRGSLTGDAPYNDNNRLRRFIAKYTINPAIAHGVDYVVGSVEEGKFADLVLWDPKFFGVKPDLVIKGGLMVNSLMGDSNGSIPTPQPRTLRNTWGAFGQAVSRSSITFLSQDAIDANVPDLLNLRKQIRGVRGVRNLTKRDMKLNAEMPDIRVDPETYQVFVNGELITSKPAETVPMARRYFLF
B1: in series [2], the Km worked out at 20 mM.

The record behind these values is patent EP0079792A2, “Process for production of urease” (priority 1981, dated 1983).
